Data taken from PubChem BioAssay (NCI).
“And” between values parts separate entries of the source, which are not always exact repeats. Equal entries are not always repeated.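 In this assay, cells in 96-well plates receive the compound at five concentrations for 48 hours. Endpoints are linearly interpolated between the surrounding concentrations. At the GI50, growth is halved. TGI is the concentration that stops growth completely.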

Legend:
Assay in all cases: NCI anticancer screen, dose series, 48 h
HCT-15 colon = tested on: HCT-15 colon
786-0 renal = tested on: 786-0 renal
K-562 leukemia = tested on: K-562 leukemia
NCI-H460 lung = tested on: NCI-H460 lung
LOX IMVI melanoma = tested on: LOX IMVI melanoma
SK-MEL-2 melanoma = tested on: SK-MEL-2 melanoma
ACHN renal = tested on: ACHN renal
NCI/ADR-RES ovarian = tested on: NCI/ADR-RES ovarian
OVCAR-8 ovarian = tested on: OVCAR-8 ovarian
IGROV1 ovarian = tested on: IGROV1 ovarian

Row | Structure (SMILES) | TGI (HCT-15 colon) | TGI (786-0 renal) | TGI (K-562 leukemia) | TGI (NCI-H460 lung) | TGI (LOX IMVI melanoma) | TGI (SK-MEL-2 melanoma) | TGI (ACHN renal) | TGI (NCI/ADR-RES ovarian) | TGI (OVCAR-8 ovarian) | TGI (IGROV1 ovarian) | GI50 (HCT-15 colon) | GI50 (786-0 renal) | GI50 (K-562 leukemia) | GI50 (NCI-H460 lung) | GI50 (LOX IMVI melanoma) | GI50 (SK-MEL-2 melanoma) | GI50 (ACHN renal) | GI50 (NCI/ADR-RES ovarian) | GI50 (OVCAR-8 ovarian) | GI50 (IGROV1 ovarian)
1 | CN(C)CCCN1c2ccc(O)cc2Sc2ccc(Cl)cc21 | 29 µM | 24 µM | 16.8 µM | 14.5 µM | 20.2 µM | 19 µM | 28.1 µM | 30.1 µM | 30.5 µM | 22 µM |  |  |  |  |  |  |  |  |  | 
2 | C=C1[C@@H](O)C[C@H]2C(C)(C)C[C@H](Cl)C[C@]2(C)[C@H]1C[C@H](O)[C@H]1CC(=O)NC1=O | 0.596 µM | 0.136 µM |  | 0.29 µM | 0.442 µM | 0.0469 µM | 0.176 µM | 0.508 µM | 0.163 µM | 0.0853 µM | 0.0255 µM | 0.0149 µM | 0.0121 µM | < 0.01 µM | < 0.0445 µM | < 0.0111 µM | 0.0166 µM | < 0.0447 µM | 0.0155 µM | 0.0114 µM
3 | CNC12C3C4C1C1C2C3C41C(=O)N[C@H](C(=O)N(C)[C@H](C[C@@H](OC(C)=O)c1nc(C(=O)N[C@@H](Cc2ccccc2)C[C@H](C)C(=O)OC)cs1)C(C)C)C1CC1 (stereo not given in full) | > 15 µM | > 15 µM | > 15 µM | > 15 µM | > 15 µM |  | > 15 µM | > 15 µM | > 15 µM | > 13.4 µM | 0.831 µM | 0.577 µM | 0.0667 µM | 0.517 µM | 0.234 µM | 0.189 µM | 0.901 µM | > 15 µM | 0.523 µM | 0.172 µM
4 | CCOC(=O)Nc1ccc(C(=O)/C=C/c2ccccc2)cc1 | > 100 µM | 81.5 µM | > 100 µM | > 100 µM | 33.1 µM | 69.7 µM | 52.3 µM | 65.8 µM | > 100 µM | > 100 µM | 27.2 µM | 26.3 µM | 8.28 µM | 28.9 µM | 8.7 µM | 25.9 µM | 22.2 µM | 24.2 µM | 33.5 µM | 19.3 µM
5 | COC(=O)C1=CO[C@@H](OC2OC(CO)C(O)C(O)C2O)[C@@H]2[C@H](C)[C@@H](O)[C@@H](O)[C@]12O (stereo not given in full) | > 100 µM | > 100 µM |  |  | > 100 µM | > 100 µM | > 100 µM | > 100 µM | > 100 µM | > 100 µM |  |  |  |  |  |  |  |  |  | 
6 | O=C1Nc2ccc(CN3CCOC3=O)cc2/C1=C/c1cc(CN2CCOCC2)c[nH]1 | > 100 µM | > 100 µM | > 100 µM | > 100 µM | > 100 µM | > 100 µM | > 100 µM | > 100 µM | > 100 µM | > 100 µM | 29.4 µM | 62.5 µM | 27.3 µM | 36.2 µM | 48.4 µM | 39.2 µM | 56 µM | 34.6 µM | 33.7 µM | 50.6 µM
7 | COc1cccc2c1C(=O)c1c(O)c3c(c(O)c1C2=O)C[C@@](O)(C(C)=O)C[C@@H]3OC1CC(O)C(O)C(C)O1 (stereo not given in full) | 9.84 µM and 14.6 µM | 8.12 µM and 19.4 µM | 14.5 µM | 2.73 µM and 5.19 µM | 3.77 µM and 2.6 µM | 9.44 µM and 15.2 µM | 2.41 µM and 2.85 µM |  |  |  |  |  |  |  |  |  | 0.397 µM | 0.000214 µM |  | 
